The results in this text go back to publication PMC12752627, “Discovery of a Potent and Selective TEAD Degrader with Durable Degradation Activity” (Advanced Science, 2025).

Data set [1] concerns the target T1, SmBiT-CRBN+LgBiT-TEAD1 (Homo sapiens, UniProt P28347+Q96SW2).
T1 construct: ternary complex formation between CRBN (41‐442) and TEAD1‐YBD (208‐424) in HEK293T cells; expressed in transfected cells; host or cells: HEK293T (transient co-transfection)
In words: NanoBiT recruitment assay (ternary complex formation) in HEK293T cells. The following applies: 3 h. Type of data set: cell-based. Here is the method:
CRBN was cloned into the SmBiT Flexi vector pFN35K (Promega), while TEAD1 was cloned into the Promega LgBiT Flexi vector pFN33K (Promega). A total of 8 µg of plasmid DNA, consisting of 2 µg of SmBiT‐CRBN plasmid and 6 µg of LgBiT‐TEAD1 plasmid, was mixed with 24 µL of the liposome transfection reagent Lipo2000 (Meilunbio, #MA0672), added to 300 µL of Opti‐MEM Reduced Serum medium (Meilunbio, #PWL042), and incubated for 20 min at room temperature. The resulting mixture was then added to 3 mL of HEK293T cell suspension at a density of 1 × 10^6 cells mL^−1 in DMEM medium containing 1% FBS, mixed thoroughly, and 18.4 µL of the mixture was transferred to each well of a white 384‐well plate (Corning, #3570), followed by incubation for 24 h. Subsequently, 2.5 µL of MLN4924 (MCE, #HY‐70062) was added to reach a final concentration of 1 µM, and the cells were incubated for an additional 4 h. Next, 3 µL of compound KG‐FP‐003 at the indicated concentrations was added, and incubation continued for 3 more hours. Afterward, a mixture of Nano‐Glo Live Cell Substrate and Nano‐Glo LCS Dilution Buffer (Promega, #N2011) was added to the 384‐well plates at 6 µL per well and incubated for 20 min at room temperature. Finally, the luminescence signal was measured using an Envision plate reader (Revvity), and the data were analyzed using GraphPad Prism 9.5 software.

In data set [2] the test system is IKZF1-3, GSPT1. In words: HiBiT off-target assessment (IMiD substrates). The following applies: HiBiT-tagged cell lines, 6 h. It is filed as cell-based. How it is done:
HiBiT cells were inoculated into 96‐well flat‐bottomed tissue culture plates at a density of 50 000 cells per well, followed by adding degraders into the wells using the I‐DOT dispenser. After 6 h of incubation, the cells were lysed and assayed for degradation using the Nano‐Glo HiBiT Lysis Assay System (Promega, #N3030). Luminescence signals were read using an Envision plate reader (Revvity) and the data were analyzed using GraphPad Prism 9.5 software.
A general note: The HiBiT peptide binds its large partner to form an active luciferase.

Data set [3] relates to TEAD1, TEAD3, and TEAD4. In words: Immunoblot dose-response in TEAD1-mNeonGreen fusion NCI-H1299 cells. Type of data set: cell-based. To be noted: 6 h. How it is done: Immunoblotting was carried out as previously described.^[ [29] ^] Cells were seeded in 6‐well plates (Yeasen, #84011ES50) at a density of 1 million cells per well. The following day, cells were treated with compounds at the required concentrations, with the DMSO concentration kept below 0.4‰ to prevent toxic effects on the cells. The collected cell pellets were washed three times with PBS (Meilunbio, #MA0015) and resuspended in 120 µL of RIPA lysis buffer (Meilunbio, #MA0151) containing 1% protease inhibitor (Meilunbio, #MB2678‐2). The cells were then sonicated on ice and centrifuged at 12 000 rpm for 15 min at 4 °C to remove cellular debris. Protein concentrations were determined using the BCA Protein Quantification Kit (Meilunbio, #MA0082‐1). The protein samples were normalized, boiled at 99 °C for 10 min, and then subjected to electrophoresis on a 10% SDS‐PAGE gel. The separated protein bands were transferred to nitrocellulose membranes, blocked with TBST containing 5% BSA, and incubated with the indicated primary antibodies. Finally, the blots were imaged using an Amersham Typhoon NIR imager.
Background: A western blot detects proteins with antibodies after separation by electrophoresis.

Data set [4] concerns NCI-H226 cells. The data set can be described thus: Cell viability assay (CTG, 72 h) NCI-H226. The following applies: Homo sapiens, NCI-H226, 72 h; 3-day antiproliferation; read-out: IC50 (nM ± SD), NCI-H226. Type of data set: cell-based. How it is done:
Cells were seeded at a density of 1000 cells per well in 96‐well flat‐bottomed cell culture plates and cultured overnight at 37 °C with 5% CO2 to allow for cell attachment. The following day, different concentrations of compounds were added using an I‐DOT dispenser. After 72 h, 25 µL of CellTiter‐Meiluncell Luminescent Cell Viability Reagent (Meilunbio, #PWL111‐2) was added and incubated for 15 min at room temperature. Luminescence signals were then measured using an Envision plate reader (Revvity). Data were analyzed using GraphPad Prism 9.5 software.^[ [30] ^]

A short description of data set [5]: Pharmacokinetic evaluation in ICR male mice. The following applies: mouse, plasma. Type of data set: in vivo.
The subject of data set [6] is MSTO-211H xenograft. The data set can be described thus: MSTO-211H xenograft efficacy study. Type of data set: in vivo, BALB/c nude mice. The following applies: for Tumor growth inhibition (TGI) rate: MSTO-211H xenograft. Here is the method: Animal experiments were conducted by Medsyin (Shanghai) Co., Ltd. The experimental protocol was approved by the IACUC of the company (No.: PZWH‐2025031003) and strictly adhered to the guidelines of the AAALAC. The specific procedures are as follows: 5 × 10^6 MSTO‐211H cells or ES2 cells were suspended in 100 µL of a mixture of PBS and Matrigel and inoculated subcutaneously into the right axilla of 6‐week‐old BALB/c nude mice. Drug administration was initiated on day 7 after cell inoculation (when the average tumor volume was ≈150 mm^3). The experiment was divided into four groups with 6 mice in each group. The specific grouping and administration methods are as follows: control group, KY‐001 group (10 mg kg^−1, p.o.), KG‐FP‐003 (10 mg kg^−1 or 30 mg kg^−1, i.p.). The administration routes included intraperitoneal injection and intragastric administration, once a day for 21 consecutive days. During the experiment, the body weight and tumor volume of the mice were measured twice a week. At the end of the experiment, the mice were sacrificed and tumor tissues were collected.

T1 sequence (Q96SW2 41-442): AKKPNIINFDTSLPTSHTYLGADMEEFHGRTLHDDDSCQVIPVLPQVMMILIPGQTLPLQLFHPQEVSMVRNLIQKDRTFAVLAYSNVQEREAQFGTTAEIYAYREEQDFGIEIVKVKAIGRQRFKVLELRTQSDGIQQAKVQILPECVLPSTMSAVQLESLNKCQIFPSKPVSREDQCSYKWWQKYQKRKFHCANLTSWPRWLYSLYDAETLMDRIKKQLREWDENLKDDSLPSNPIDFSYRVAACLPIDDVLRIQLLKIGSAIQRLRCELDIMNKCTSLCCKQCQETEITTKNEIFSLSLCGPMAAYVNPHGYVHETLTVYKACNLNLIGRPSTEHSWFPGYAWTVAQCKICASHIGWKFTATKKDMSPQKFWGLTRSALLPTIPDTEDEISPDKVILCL
T1 sequence (P28347 208-424): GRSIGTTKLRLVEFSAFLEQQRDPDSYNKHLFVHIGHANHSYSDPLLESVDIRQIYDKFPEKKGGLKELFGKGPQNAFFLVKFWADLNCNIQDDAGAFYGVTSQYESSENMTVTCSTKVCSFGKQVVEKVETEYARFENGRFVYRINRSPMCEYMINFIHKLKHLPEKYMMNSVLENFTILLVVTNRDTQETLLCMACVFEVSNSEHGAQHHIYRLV

The term EC50 denotes the midpoint of the concentration-response curve. Low readings indicate an effect from little substance, high ones a need for much substance. What is called IC50 is the concentration that inhibits the measured activity by half. In general, AUC(0-inf) refers to the area under the concentration-time curve extrapolated to infinity. Read a high AUC(0-inf) as more exposure. By AUC(0-t) is commonly meant the area under the concentration-time curve up to a stated or last time point. A high value points to more exposure. The term Cmax denotes the peak of the concentration-time curve. In general, MRT inf refers to a mean duration of stay, worked out from the concentration-time curve. A word on the Tmax: it is the time at which the peak concentration occurs. For orientation: half-life means how long it takes for the measured level to halve. Broadly, the bioavailability is the share of a dose that reaches the circulation, judged against a reference dose that is usually intravenous. In turn, `CNC(=O)c1cc2c(c(F)c1-c1c(Cl)c(F)cc3c1C[C@@](CN[C@H]1CC[C@H](C(=O)N4CCC(CC5CCN(C(=O)COc6ccc(N7CCC(=O)NC7=O)c(C)c6)CC5)CC4)CC1)(c1ccccc1)O3)[C@@H](O)[C@@H](C)C2` [KG-FP-003] came in with an EC50 in data set [1] of 8 ± 4 nM. The “Off-target degradation of IMiD substrates IKZF1-3 and GSPT1” value in data set [2] was “no off‐target degradation was detected”. Also, the “DC50 against TEAD1, TEAD3, and TEAD4 by immunoblot” value in data set [3] is “nanomolar range”. The IC50 in data set [4] turned out to be 27 ± 7 nM. For the same compound, in data set [5] (IP 5 mg/kg), the AUC(0-inf) came to 2610 ng·h/mL, the AUC(0-t) is 2560 ng·h/mL, the Cmax stood at 2010 ng/mL and the MRT inf came out at 3.13 h. For the same compound, in data set [5] (IP 5 mg/kg), the time to peak (Tmax) came to 0.42 h and the half-life was 5.42 h. Moreover, in data set [5] (IP 5 mg/kg, read-out: F% (bioavailability)), the bioavailability was determined as 99%. In data set [5] (IV 2 mg/kg), the AUC(0-inf) stood at 1060 ng·h/mL, the AUC(0-t) came out at 1040 ng·h/mL, the peak level (Cmax) was 4430 ng/mL and the MRT inf was found to be 1.4 h. Besides, in data set [5] (IV 2 mg/kg), the Tmax amounted to 0 h and the half-life is 3.57 h. In data set [6] (10 mg/kg i.p. q.d. 21 days), the “Tumor growth inhibition (TGI) rate” value is on record as 118%. Besides, in data set [6] (30 mg/kg i.p. q.d. 21 days), the “Tumor growth inhibition (TGI) rate” value was determined as 129%. The “Body weight during treatment” value in data set [6] (10 or 30 mg/kg i.p., 21 days, MSTO-211H xenograft mice) is reported as “stable body weights”.
